{"source": "patent US20050203000A1", "about": "“Use of benzyl alcohol, and other phenolic preservatives to reduce pain during intradermal injection” (priority 2003, published 2005)", "key": {"[1]": {"assay": "Dermal irritancy of preservatives in intradermal formulations (Draize dermal irritation scoring)", "assay_type": "in vivo, human", "conditions": "irritancy potential had been seen in animal models such as swine", "source_text": "Benzyl alcohol, m-cresol and other preservatives were previously thought to be deleterious for inclusion in ID formulations based on their potential for dermal irritancy measured in animal models such as swine (Draize Irritancy Scores, NB 00-8440-01). In humans, however, these effects are not observed and beneficial results are gained in the perception of reduced pain.\n(§1) Typically, each participating subject received a series of ‘treatments’ consisting of intradermal infusions or injections of either sterile unpreserved isotonic saline, or sterile bacteriostatic isotonic saline for injection in the anterior thigh using microneedle-based intradermal injection devices. Participants were asked to rate the pain immediately after the device was applied to the skin, and at the end of the injection/infusion procedure. In addition, injection sites were evaluated for irritation using the Draize dermal irritation scoring scale for erythema and edema, and for the presence of any other adverse skin effects, occurring at the time of injection or developing at a later time."}, "[2]": {"assay": "Pain perception of intradermal injection/infusion, Gracely Box SL Scale (0-20), human clinical study", "assay_type": "in vivo", "conditions": "recent clinical trials", "protocol": "A series of prospective, randomized, open label human clinical studies were conducted. The following inclusion criteria was typically used: • 18 years of age or older • In stable health status with no acute or severe illness • Willing to complete all study procedures • Available for designated study days\nas §1, with “time. […]” for “time.”\nPain was determined using a Gracely Box SL Scale (reference: Heft, Gracely and Dubner, Pain, 1980, 9:363-373). Pain scores were typically recorded after insertion of the intradermal delivery device, and upon complete intradermal instillation of the total saline dose. […]\nTypically, pain scale scores were analyzed by ANOVA using a linear-type model. […]"}}}
{"molecule": "OCc1ccccc1", "note": "[Benzyl alcohol]", "values": [{"measurement": "Dermal irritancy effects in humans", "setting": "[1]", "result": "not observed"}]}
{"molecule": "Cc1cccc(O)c1", "note": "[m-cresol]", "values": [{"measurement": "Dermal irritancy effects in humans", "setting": "[1]", "result": "not observed"}]}
{"molecule": "insulin", "values": [{"measurement": "Pain scores for intradermal delivery compared with preservative-free solutions", "setting": "[2]", "result": "significantly lower pain scores"}]}
